These results are taken from US20150273069A1, “FATTY ACID ACYLATED AMINO ACIDS FOR ORAL PEPTIDE DELIVERY” (NOVO NORDISK A/S, priority 2012, published 2015).

Broadly, the Papp A→B is how fast a substance crosses the layer from the apical side.

One data set relates to Caco-2 cell monolayers. The data set can be described thus: Transport of semaglutide across Caco-2 cell monolayers in the presence of fatty acid acylated amino acids. It is filed as in vitro ADME. Particulars: for Papp: permeation of semaglutide (100 μM), apical to basolateral, with 0.5 mM fatty acid acylated amino acid, pH 7.4; for permeation enhancing effect: on semaglutide across Caco-2 monolayers, compared among the fatty acid acylated amino acids tested. How it is done:
(§1) Caco-2 cells were obtained from the American Type Culture Collection (Manassas, Va.). Cells were seeded in culturing flasks and passaged in Dulbecco's Modified Eagle′ medium supplemented with 10% fetal bovine serum, 1% penicillin/streptomycin (100 U/ml and 100 μg/ml, respectively), 1% L-glutamine and 1% nonessential amino acids. Caco-2 cells were seeded onto tissue culture treated polycarbonate filters in 12-well Transwell® plates (1.13 cm2, 0.4 μm pore size) at a density of 10^5 cells/well. Monolayers were grown in an atmosphere of 5% CO2-95% O2 at 37° C. Growth media were replaced every other day. The experiment was performed on day 10-14 after seeding of Caco-2 cells.
(§2) The amount of compound transported from the donor chamber (apical side) to the receiver chamber (basolateral side) was measured. The transport study was initiated by adding 400 μl solution (100 μM of semaglutide+0.5 mM fatty acid acylated amino acids) and 0.4 μCi/μl [3H]manntiol in transport buffer to the donor chamber and 1000 μl transport buffer to the receiver chamber. The transport buffer consisted of Hank's balanced saline solution containing 10 mM HEPES, […] to pH 7.4 after addition of compounds. The transport of [^3H]mannitol, a marker for paracellular transport, was measured to verify the integrity of the epithelium.
(§3) Before the experiment, the Caco-2 cells were equilibrated for 60 min with transport buffer on both sides of the epithelium. Buffer was then removed and the experiment initiated. Donor samples (20 μl) were taken at 0 min and at the end of the experiment. Receiver samples (200 μl) were taken every 15 min. The study was performed in an atmosphere of 5% CO2-95% O2 at 37° C. on a shaking plate (30 rpm).
(§4) In all samples with semaglutide and mannitol, the concentration was determined using a LOCI assay and scintillation counter, respectively.
(§5) Before and during the experiment the transepithelial electrical resistance (TEER) of the cell monolayers was monitored. In selected experiments, the transport buffer were changed to culturing medium after end of experiment and the TEER measured 24 h after experiment. The TEER was measured with EVOM™ Epithelial Voltohmmeter connected to Chopsticks.

Experiment in data set [1]: as above
Particulars: human, Caco-2; permeation of semaglutide (100 μM), apical to basolateral, permeation enhancer: None, pH 7.4. Type of data set: in vitro ADME. How it is done: as §1, §2, §3, §4, §5

In the case of `CCCCCCCCCCCC(=O)N[C@@H](CC(C)C)C(=O)[O-].[Na+]` [Sodium N-dodecanoyl L-leucinate], the Papp with Caco-2 cell monolayers is 2.53 10^−8 cm/s. On to `CC[C@H](C)[C@H](NC(=O)[C@H](Cc1ccccc1)NC(=O)[C@H](CCC(=O)O)NC(=O)[C@H](CCCCNC(=O)COCCOCCNC(=O)COCCOCCNC(=O)CC[C@H](NC(=O)CCCCCCCCCCCCCCCCC(=O)O)C(=O)O)NC(=O)[C@H](C)NC(=O)[C@H](C)NC(=O)[C@H](CCC(N)=O)NC(=O)CNC(=O)[C@H](CCC(=O)O)NC(=O)[C@H](CC(C)C)NC(=O)[C@H](Cc1ccc(O)cc1)NC(=O)[C@H](CO)NC(=O)[C@H](CO)NC(=O)[C@@H](NC(=O)[C@H](CC(=O)O)NC(=O)[C@H](CO)NC(=O)[C@@H](NC(=O)[C@H](Cc1ccccc1)NC(=O)[C@@H](NC(=O)CNC(=O)[C@H](CCC(=O)O)NC(=O)C(C)(C)NC(=O)[C@@H](N)Cc1cnc[nH]1)[C@@H](C)O)[C@@H](C)O)C(C)C)C(=O)N[C@@H](C)C(=O)N[C@@H](Cc1c[nH]c2ccccc12)C(=O)N[C@@H](CC(C)C)C(=O)N[C@H](C(=O)N[C@@H](CCCNC(=N)N)C(=O)NCC(=O)N[C@@H](CCCNC(=N)N)C(=O)NCC(=O)O)C(C)C` [semaglutide, N-epsilon26-[2-(2-{2-[2-(2-{2-[(S)-4-carboxy-4-(17-carboxyheptadecanoylamino)butyrylamino]ethoxy}ethoxy)acetylamino]ethoxy}ethoxy)acetyl][Aib8,Arg34]GLP-1(7-37), reference compound], for which the Papp A→B at 100 μM in data set [1] is 0.0065 ×10⁻⁶ cm/s. For the compound `CCCCCCCCCC(=O)N[C@@H](CC(N)=O)C(=O)[O-].[Na+]` [Sodium N-decanoyl L-asparaginate], in the data set with Caco-2 cell monolayers, the Papp is given as 0.31 10^−8 cm/s. As to `CCCCCCCCCCCCCC(=O)N[C@H](C(=O)[O-])C(C)C.[Na+]` [Sodium N-myristoyl L-valinate], in the data set with Caco-2 cell monolayers, the permeation enhancing effect result is listed as “greatest effect” and the Papp was 78.83 10^−8 cm/s. On to `CCCCCCCCCC(=O)N[C@@H](CC(C)C)C(=O)[O-].[Na+]` [Sodium N-decanoyl L-leucinate], for which, in the data set on Caco-2 cell monolayers, the Papp is 2.12 10^−8 cm/s. Consider `CCCCCCCCCCCCCC(=O)N[C@@H](CC(C)C)C(=O)[O-].[Na+]` [Sodium N-myristoyl L-leucinate], for which, in the data set on Caco-2 cell monolayers, the permeation enhancing effect entry is “greatest effect” and the Papp is listed as 63.88 10^−8 cm/s. Turning to `CCCCCCCCCCCC(=O)N[C@@H](Cc1ccccc1)C(=O)[O-].[Na+]` [Sodium N-dodecanoyl L-phenylalaninate], the Papp in the data set with Caco-2 cell monolayers is 5.60 10^−8 cm/s.
